Experimental data taken from patent US12448364B2, “2, 4-diaminopyrimidine derivative and application thereof” (Shanghai Zheye Biotechnology Co., Ltd., priority 2018, dated 2025).
Where two headings read alike, the source gives them in different places.

Legend:
ALK2 kinase = ALK2 kinase (Homo sapiens (Human), UniProt Q04771); experiment: Inhibitory activity test of the compounds on ALK2 (Promega ALK2 Kinase Enzyme System, ADP-Glo); type: biochemical; details: ADP-Glo chemiluminescence, 65 μM ATP substrate mix; read-out: IC50 (nM) values of the inhibitory activities on ALK2
Sequence of ALK2 kinase (Q04771 21-509): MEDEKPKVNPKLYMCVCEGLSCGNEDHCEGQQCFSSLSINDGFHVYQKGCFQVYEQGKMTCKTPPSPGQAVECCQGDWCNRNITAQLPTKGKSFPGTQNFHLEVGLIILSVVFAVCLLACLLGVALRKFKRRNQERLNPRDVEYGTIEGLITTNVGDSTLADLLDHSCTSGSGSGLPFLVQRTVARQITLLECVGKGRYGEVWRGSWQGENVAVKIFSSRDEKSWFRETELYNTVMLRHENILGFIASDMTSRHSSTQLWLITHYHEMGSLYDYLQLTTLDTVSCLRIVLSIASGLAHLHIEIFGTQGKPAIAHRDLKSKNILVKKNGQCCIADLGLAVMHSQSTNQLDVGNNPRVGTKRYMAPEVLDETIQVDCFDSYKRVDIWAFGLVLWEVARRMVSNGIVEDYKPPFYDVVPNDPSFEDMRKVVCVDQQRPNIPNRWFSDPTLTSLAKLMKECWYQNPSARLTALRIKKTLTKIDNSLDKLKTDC
Method: 1. Inhibitory Activity Test of the Compounds on ALK2
ALK2 Kinase Enzyme System kit from Promega was used for the test. Reagents for kinase test was prepared first, the reagents comprising: (1)4×Kinase buffer 250 μL (containing 200 μM DTT); (2)5×Inhibitor mother liquor, i.e., the test compound was prepared into 10 mM mother liquor with DMSO, and the test compound was diluted into 5 mM (20 μL of 10 mM test compound mother liquor+20 μL of DMSO dissolved) with DMSO; (3)1×Kinase buffer (containing 1% DMSO) 200 μL; (4)1×Kinase buffer 40 μL; @Kinase solution 115 μL; (6)Substrate Mix (containing 65 μM ATP) 120 μL. The inhibitor working solution was then prepared, i.e., the test compound was prepared into 5 mM mother liquor with DMSO, 1 μL of 5 mM mother liquor was taken and was diluted into the concentration of 50000 nM by adding 99 μL 1×Kinase buffer; 20 μL of the solution of this concentration was taken, and 80 μL of 1×Kinase buffer (containing 1% DMSO) was added thereto to obtain the concentration of 10000 nM, 5 times dilution was carried out in this way, and a total of 6 concentration gradients were provided. 1 μL of the compound at each concentration was taken and added to a 384-well plate, and then 2 μL Kinase solution (160 mM Tris, 7.5; 80 mM MgCl2; 0.4 mg/ml BSA; 200 μM DTT; ALK2 kinase) was added to each well, and the plate was centrifuged at 1000 rpm for 20 seconds at room temperature, incubated for 30 minutes at 25° C.; then 2 μL of a mixture containing ATP and kinase substrate was added to each well, the plate was centrifuged at 1000 rpm for 20 seconds at room temperature, and incubated at 25° C. for 120 minutes. Then 5 μL of ADP-Glo™ reagent was added to each well, and the plate was incubated at 25° C. for 40 minutes; then 10 μL of Kinase Detection Reagent was added to each well, the plate was incubated at 25° C. for 30 minutes and then was tested; a microplate reader was used to record the chemiluminescence value, the curve was fitted with Origin 7.5, the IC50 (nM) value of the test substance on the ALK2 kinase activity was calculated.

hepcidin in HepG2 cells = experiment: Inhibition test of compounds on hepcidin expression in HepG2 cells (hepcidin ELISA); type: cell-based, human; details: 48 hours incubation, hepcidin protein in supernatant by ELISA, read-out: IC50 (nM) values of the inhibitory activities on hepcidin in HepG2 cells
Method: 2. Inhibition Test of Compounds on Hepcidin Expression in HepG2 Cells
HepG2 cells (ATCC HB-8065) in the exponential growth phase were digested with trypsin-EDTA, inoculated into 96-well plates at 5000 cells/well, and cultured in MEM (10% FBS) medium at 37° C. under 5% CO2 conditions for 24 hours, the test compound dissolved in DMSO and diluted in the medium and at a gradient concentration was added to each culture well. The preparation method of the test compound is: a compound mother liquor at a concentration of 10 mM was prepared, and then the compound was diluted in a gradient. The highest concentration of the compound for test was 10 μM, and a total of 8 gradients were obtained by 5-fold dilution. The diluted compound was added to a 96-well plate covered with cells, 50 μL per well. After the compound was added, the plate was placed in an incubator stored at 37° C. and 5% CO2, and incubated for another 48 hours. After the incubation was completed, the 96-well plate was centrifuged at 1000 rpm for 5 minutes at room temperature, the supernatant was taken, ELISA sample loading and detecting were completed within 30 minutes. Hepcidin ELISA kit (Human Hepcidin Quantikine ELISA Kit, R&D systems, Cat #DHP250) was used to quantitatively detect hepcidin protein. […] After washing and color development, the absorbance value was determined with a microplate reader at 450 nm, and the concentration of hepcidin protein in the test sample was calculated according to the quasi-curve of human hepcidin protein determination, and the curve was fitted with Origin 7.5 software, the IC50 (nM) value on the inhibition of producing hepcidin preotein of HepG2 cells by the test compound was calculated.

| SMILES | IC50 (ALK2 kinase) [nM] | IC50 (hepcidin in HepG2 cells; Homo sapiens) [nM] | IC50 (hepcidin in HepG2 cells) [nM] |
| --- | --- | --- | --- |
| COc1cc(Nc2nccc(Nc3cccnc3-c3ccccn3)n2)ccc1C1CCOCC1 [Compound 1, N^4-(2,2′-bipyridin-3-yl)-N^2-(3-methoxy-4-(tetrahydro-2H-pyran-4-yl)phenyl)pyrimidine-2,4-diamine] | 150 to 500 | – | – |
| COc1cc(Nc2nccc(Nc3cccnc3-c3ccccn3)n2)ccc1C1CCN(C)CC1 [Compound 2, N^4-(2,2′-bipyridin-3-yl)-N^2-3-(methoxy-4-(1-methylpiperidin-4-yl)phenyl)pyrimidine-2,4-diamine] | ≤ 150 | 14 | – |
| COc1cc(Nc2ncc(OC)c(Nc3cccnc3-c3ccccn3)n2)ccc1C1CCOCC1 [Compound 4, N^4-(2,2′-bipyridin-3-yl)-5-methoxy-N^2-(3-methoxy-4-(tetrahydro-2H-pyran-4-yl)phenyl)pyrimidine-2,4-diamine] | 150 to 500 | – | – |

The remaining lines, values ahead:

| IC50 (ALK2 kinase) [nM] | IC50 (hepcidin in HepG2 cells; Homo sapiens) [nM] | IC50 (hepcidin in HepG2 cells) [nM] | SMILES |
| --- | --- | --- | --- |
| ≤ 150 | 30 | – | COc1cc(Nc2nccc(Nc3ccc(C)nc3-c3ccccn3)n2)ccc1C1CCN(C)CC1 [Compound 5, N^2-(3-methoxy-4-(1-methylpiperidin-4-yl)phenyl)-N^4-(6-methyl-2,2′-bipyridin-3-yl)pyrimidine-2,4-diamine] |
| ≥ 500 | – | 532 | COc1cc(Nc2nccc(Nc3cccnc3-c3ccccn3)n2)cc(OC)c1OC [Compound I*, reference compound] |
